Source: patent US12077503B2, “Substituted cyclic amides and their use as herbicides” (FMC CORPORATION, priority 2015, dated 2024)

How the values were obtained:
Type in all cases: in vivo
[1] = system: barnyardgrass (Echinochloa crus-galli); test: Test G Pre-Emergence Protocol; details: Echinochloa crus-galli, pre-emergence, 312 h, evaluated after 13 days; for pest or weed control at 15.625 g/ha: 15.625 g ai/ha, read-out: Barnyard grass damage rating (100=total damage to plant; 0=no damage to plant); for pest or weed control at 62.5 g/ha: 62.5 g ai/ha, 100=total damage to plant, 0=no damage to plant, read-out: plant damage rating, Barnyardgrass; for pest or weed control at 250 g/ha: 250 g ai/ha, read-out: Barnyardgrass damage rating (100=total damage to plant; 0=no damage to plant)
How it was run: (§1)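 Seeds were sown in standard soil and kept one day in a glasshouse (24/16° C day/night, 14 h light, 65% humidity), then sprayed with compound in acetone/water (50:50) containing 0.5% Tween 20 at 15.625, 62.5 or 250 g/ha. Damage was scored after 13 days (0 = none, 100 = total).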

corn (Zea mays) [2] = test: Test G Pre-Emergence Protocol; details: Zea mays, pre-emergence, 312 h, evaluated after 13 days; for plant injury at 15.625 g/ha: 15.625 g ai/ha; for plant injury at 15.625 g/ha / plant injury at 250 g/ha: read-out: Corn damage rating (100=total damage to plant; 0=no damage to plant); for plant injury at 62.5 g/ha: 62.5 g ai/ha, 100=total damage to plant, 0=no damage to plant, read-out: plant damage rating, Corn; for plant injury at 250 g/ha: 250 g ai/ha
How it was run: as §1

[3] = system: giant foxtail (Setaria faberi); test: Test G Pre-Emergence Protocol; details: Setaria faberi, pre-emergence, 312 h, evaluated after 13 days; for pest or weed control at 15.625 g/ha: 15.625 g ai/ha; for pest or weed control at 15.625 g/ha / pest or weed control at 250 g/ha: read-out: Foxtail, Giant damage rating (100=total damage to plant; 0=no damage to plant); for pest or weed control at 62.5 g/ha: 62.5 g ai/ha, 100=total damage to plant, 0=no damage to plant, read-out: plant damage rating, Foxtail, Giant; for pest or weed control at 250 g/ha: 250 g ai/ha
How it was run: as §1

[4] = system: ivy-leaved morning glory (Ipomoea hederacea); test: Test G Pre-Emergence Protocol; details: Ipomoea, pre-emergence, 312 h, evaluated after 13 days; for pest or weed control at 15.625 g/ha: 15.625 g ai/ha, read-out: Morning-glory, Ivy-leaved damage rating (100=total damage to plant; 0=no damage to plant); for pest or weed control at 62.5 g/ha: 62.5 g ai/ha, 100=total damage to plant, 0=no damage to plant, read-out: plant damage rating, Morningglory, Ivy-leaved; for pest or weed control at 250 g/ha: 250 g ai/ha, read-out: Morningglory, Ivy-leaved damage rating (100=total damage to plant; 0=no damage to plant)
How it was run: as §1

[5] = system: redroot pigweed (Amaranthus retroflexus); test: Test G Pre-Emergence Protocol; details: Amaranthus retroflexus, pre-emergence, 312 h, evaluated after 13 days; for pest or weed control at 15.625 g/ha: 15.625 g ai/ha; for pest or weed control at 15.625 g/ha / pest or weed control at 250 g/ha: read-out: Pigweed, Redroot damage rating (100=total damage to plant; 0=no damage to plant); for pest or weed control at 62.5 g/ha: 62.5 g ai/ha, 100=total damage to plant, 0=no damage to plant, read-out: plant damage rating, Pigweed, Redroot; for pest or weed control at 250 g/ha: 250 g ai/ha
How it was run: as §1

[6] = system: velvetleaf (Abutilon theophrasti); test: Test G Pre-Emergence Protocol; details: Abutilon theophrasti, pre-emergence, 312 h, evaluated after 13 days; for pest or weed control at 15.625 g/ha: 15.625 g ai/ha; for pest or weed control at 15.625 g/ha / pest or weed control at 250 g/ha: read-out: Velvetleaf damage rating (100=total damage to plant; 0=no damage to plant); for pest or weed control at 62.5 g/ha: 62.5 g ai/ha, 100=total damage to plant, 0=no damage to plant, read-out: plant damage rating, Velvetleaf; for pest or weed control at 250 g/ha: 250 g ai/ha
How it was run: as §1

[7] = system: barnyardgrass (Echinochloa crus-galli); test: Test G Post-Emergence Protocol; details: Echinochloa crus-galli, post-emergence, 312 h; for pest or weed control at 15.625 g/ha: 15.625 g ai/ha, evaluated after 13 days (100=total damage to plant; 0=no damage to plant), read-out: Barnyardgrass damage rating; for pest or weed control at 62.5 g/ha: 62.5 g ai/ha, read-out: Barnyardgrass damage rating (100=total damage to plant; 0=no damage to plant); for pest or weed control at 62.5 g/ha / pest or weed control at 250 g/ha: evaluated after 13 days; for pest or weed control at 250 g/ha: 250 g ai/ha, read-out: damage to plant, Barnyardgrass (100=total damage to plant; 0=no damage to plant)
How it was run: (§2)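 Values are percent visual injury at 13 days after treatment (0 none, 100 total). Treatment was a post-emergence spray at 15.625, 62.5 or 250 g/ha on 8-day-old pot plants kept at 24/16 °C.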

corn (Zea mays) [8] = test: Test G Post-Emergence Protocol; details: Zea mays, post-emergence, 312 h; for plant injury at 15.625 g/ha: 15.625 g ai/ha, evaluated after 13 days (100=total damage to plant; 0=no damage to plant), read-out: Corn damage rating; for plant injury at 62.5 g/ha: 62.5 g ai/ha, read-out: Corn damage rating (100=total damage to plant; 0=no damage to plant); for plant injury at 62.5 g/ha / plant injury at 250 g/ha: evaluated after 13 days; for plant injury at 250 g/ha: 250 g ai/ha, read-out: damage to plant, Corn (100=total damage to plant; 0=no damage to plant)
How it was run: as §2

[9] = system: giant foxtail (Setaria faberi); test: Test G Post-Emergence Protocol; details: Setaria faberi, post-emergence, 312 h; for pest or weed control at 15.625 g/ha: 15.625 g ai/ha, evaluated after 13 days (100=total damage to plant; 0=no damage to plant), read-out: Foxtail, Giant damage rating; for pest or weed control at 62.5 g/ha: 62.5 g ai/ha, read-out: Foxtail, Giant damage rating (100=total damage to plant; 0=no damage to plant); for pest or weed control at 62.5 g/ha / pest or weed control at 250 g/ha: evaluated after 13 days; for pest or weed control at 250 g/ha: 250 g ai/ha, read-out: damage to plant, Foxtail, Giant (100=total damage to plant; 0=no damage to plant)
How it was run: as §2

[10] = system: ivy-leaved morning glory (Ipomoea hederacea); test: Test G Post-Emergence Protocol; details: Ipomoea, post-emergence, 312 h; for pest or weed control at 15.625 g/ha: 15.625 g ai/ha, evaluated after 13 days (100=total damage to plant; 0=no damage to plant), read-out: Morningglory, Ivy-leaved damage rating; for pest or weed control at 62.5 g/ha: 62.5 g ai/ha, read-out: Morningglory, Ivy-leaved damage rating (100=total damage to plant; 0=no damage to plant); for pest or weed control at 62.5 g/ha / pest or weed control at 250 g/ha: evaluated after 13 days; for pest or weed control at 250 g/ha: 250 g ai/ha, read-out: damage to plant, Morningglory, Ivy-leaved (100=total damage to plant; 0=no damage to plant)
How it was run: as §2

[11] = system: redroot pigweed (Amaranthus retroflexus); test: Test G Post-Emergence Protocol; details: Amaranthus retroflexus, post-emergence, 312 h; for pest or weed control at 15.625 g/ha: 15.625 g ai/ha, evaluated after 13 days (100=total damage to plant; 0=no damage to plant), read-out: Pigweed, Redroot damage rating; for pest or weed control at 62.5 g/ha: 62.5 g ai/ha, read-out: Pigweed, Redroot damage rating (100=total damage to plant; 0=no damage to plant); for pest or weed control at 62.5 g/ha / pest or weed control at 250 g/ha: evaluated after 13 days; for pest or weed control at 250 g/ha: 250 g ai/ha, read-out: damage to plant, Pigweed, Redroot (100=total damage to plant; 0=no damage to plant)
How it was run: as §2

[12] = system: velvetleaf (Abutilon theophrasti); test: Test G Post-Emergence Protocol; details: Abutilon theophrasti, post-emergence, 312 h; for pest or weed control at 15.625 g/ha: 15.625 g ai/ha, evaluated after 13 days (100=total damage to plant; 0=no damage to plant), read-out: Velvetleaf damage rating; for pest or weed control at 62.5 g/ha: 62.5 g ai/ha, read-out: Velvetleaf damage rating (100=total damage to plant; 0=no damage to plant); for pest or weed control at 62.5 g/ha / pest or weed control at 250 g/ha: evaluated after 13 days; for pest or weed control at 250 g/ha: 250 g ai/ha, read-out: damage to plant, Velvetleaf (100=total damage to plant; 0=no damage to plant)
How it was run: as §2

Structure (SMILES) | pest or weed control at 15.625 g/ha [1] [%] | pest or weed control at 62.5 g/ha [1] [%] | pest or weed control at 250 g/ha [1] [%] | plant injury at 15.625 g/ha (corn (Zea mays) [2]) [%] | plant injury at 62.5 g/ha (corn (Zea mays) [2]) [%] | plant injury at 250 g/ha (corn (Zea mays) [2]) [%] | pest or weed control at 15.625 g/ha [3] [%] | pest or weed control at 62.5 g/ha [3] [%] | pest or weed control at 250 g/ha [3] [%] | pest or weed control at 15.625 g/ha [4] [%] | pest or weed control at 62.5 g/ha [4] [%] | pest or weed control at 250 g/ha [4] [%] | pest or weed control at 15.625 g/ha [5] [%] | pest or weed control at 62.5 g/ha [5] [%] | pest or weed control at 250 g/ha [5] [%] | pest or weed control at 15.625 g/ha [6] [%] | pest or weed control at 62.5 g/ha [6] [%] | pest or weed control at 250 g/ha [6] [%] | pest or weed control at 15.625 g/ha [7] [%] | pest or weed control at 62.5 g/ha [7] [%] | also measured
CN1C[C@@H](c2ccc(C(F)(F)F)cc2)[C@H](C(=O)Nc2ccc(Cl)nc2)C1=O (racemic) [Compound 1525] | 0 | 0 | 40 | 0 | 0 | 0 | 0 | 10 | 30 | 0 | 0 | 0 | 0 | 0 | 0 | 0 | 0 | 0 | 0 | 0 | pest or weed control at 250 g/ha [7]: 0%; plant injury at 15.625 g/ha (corn (Zea mays) [8]): 0%; plant injury at 62.5 g/ha (corn (Zea mays) [8]): 0%; plant injury at 250 g/ha (corn (Zea mays) [8]): 10%; pest or weed control at 15.625 g/ha [9]: 0%; pest or weed control at 62.5 g/ha [9]: 0%; pest or weed control at 250 g/ha [9]: 10%; pest or weed control at 15.625 g/ha [10]: 0%; pest or weed control at 62.5 g/ha [10]: 0%; pest or weed control at 250 g/ha [10]: 20%; pest or weed control at 15.625 g/ha [11]: 0%; pest or weed control at 62.5 g/ha [11]: 0%; pest or weed control at 250 g/ha [11]: 0%; pest or weed control at 15.625 g/ha [12]: 0%; pest or weed control at 62.5 g/ha [12]: 0%; pest or weed control at 250 g/ha [12]: 0%
Cc1cnc(NC(=O)[C@@H]2C(=O)N(C)C[C@H]2c2ccc(C(F)(F)F)cc2)cn1 (racemic) [Compound 1648] | 0 | 0 | 0 | 0 | 0 | 0 | 0 | 0 | 0 | 0 | 0 | 0 | 0 | 0 | 0 | 0 | 0 | 0 | 0 | 0 | pest or weed control at 250 g/ha [7]: 0%; plant injury at 15.625 g/ha (corn (Zea mays) [8]): 0%; plant injury at 62.5 g/ha (corn (Zea mays) [8]): 0%; plant injury at 250 g/ha (corn (Zea mays) [8]): 0%; pest or weed control at 15.625 g/ha [9]: 0%; pest or weed control at 62.5 g/ha [9]: 0%; pest or weed control at 250 g/ha [9]: 0%; pest or weed control at 15.625 g/ha [10]: 0%; pest or weed control at 62.5 g/ha [10]: 0%; pest or weed control at 250 g/ha [10]: 0%; pest or weed control at 15.625 g/ha [11]: 0%; pest or weed control at 62.5 g/ha [11]: 0%; pest or weed control at 250 g/ha [11]: 0%; pest or weed control at 15.625 g/ha [12]: 0%; pest or weed control at 62.5 g/ha [12]: 0%; pest or weed control at 250 g/ha [12]: 0%
